Results taken from ChEMBL document CHEMBL3612045, “3-Benzamides and 3,4,5-trimethoxyphenyl amines as calcium channel blockers” (Bioorg Med Chem, 2015).
pIC50: −log10 of the molar value. Activity calls are given as the source filed them.

Tests used:
[1] = molecular target: T1, Voltage-dependent T-type calcium channel subunit alpha-1G (Homo sapiens, UniProt O43497); assay: Inhibition of Cav3.1 channel (unknown origin) assessed as reduction in peak currents at 10 uM by whole cell patch-clamp method
[2] = molecular target: T2, Voltage-dependent N-type calcium channel subunit alpha-1B (Homo sapiens, UniProt Q00975); assay: Inhibition of Cav2.2 channel (unknown origin) assessed as reduction in peak currents by whole cell patch-clamp method
Target sequence in this assay (Q00975 whole entry): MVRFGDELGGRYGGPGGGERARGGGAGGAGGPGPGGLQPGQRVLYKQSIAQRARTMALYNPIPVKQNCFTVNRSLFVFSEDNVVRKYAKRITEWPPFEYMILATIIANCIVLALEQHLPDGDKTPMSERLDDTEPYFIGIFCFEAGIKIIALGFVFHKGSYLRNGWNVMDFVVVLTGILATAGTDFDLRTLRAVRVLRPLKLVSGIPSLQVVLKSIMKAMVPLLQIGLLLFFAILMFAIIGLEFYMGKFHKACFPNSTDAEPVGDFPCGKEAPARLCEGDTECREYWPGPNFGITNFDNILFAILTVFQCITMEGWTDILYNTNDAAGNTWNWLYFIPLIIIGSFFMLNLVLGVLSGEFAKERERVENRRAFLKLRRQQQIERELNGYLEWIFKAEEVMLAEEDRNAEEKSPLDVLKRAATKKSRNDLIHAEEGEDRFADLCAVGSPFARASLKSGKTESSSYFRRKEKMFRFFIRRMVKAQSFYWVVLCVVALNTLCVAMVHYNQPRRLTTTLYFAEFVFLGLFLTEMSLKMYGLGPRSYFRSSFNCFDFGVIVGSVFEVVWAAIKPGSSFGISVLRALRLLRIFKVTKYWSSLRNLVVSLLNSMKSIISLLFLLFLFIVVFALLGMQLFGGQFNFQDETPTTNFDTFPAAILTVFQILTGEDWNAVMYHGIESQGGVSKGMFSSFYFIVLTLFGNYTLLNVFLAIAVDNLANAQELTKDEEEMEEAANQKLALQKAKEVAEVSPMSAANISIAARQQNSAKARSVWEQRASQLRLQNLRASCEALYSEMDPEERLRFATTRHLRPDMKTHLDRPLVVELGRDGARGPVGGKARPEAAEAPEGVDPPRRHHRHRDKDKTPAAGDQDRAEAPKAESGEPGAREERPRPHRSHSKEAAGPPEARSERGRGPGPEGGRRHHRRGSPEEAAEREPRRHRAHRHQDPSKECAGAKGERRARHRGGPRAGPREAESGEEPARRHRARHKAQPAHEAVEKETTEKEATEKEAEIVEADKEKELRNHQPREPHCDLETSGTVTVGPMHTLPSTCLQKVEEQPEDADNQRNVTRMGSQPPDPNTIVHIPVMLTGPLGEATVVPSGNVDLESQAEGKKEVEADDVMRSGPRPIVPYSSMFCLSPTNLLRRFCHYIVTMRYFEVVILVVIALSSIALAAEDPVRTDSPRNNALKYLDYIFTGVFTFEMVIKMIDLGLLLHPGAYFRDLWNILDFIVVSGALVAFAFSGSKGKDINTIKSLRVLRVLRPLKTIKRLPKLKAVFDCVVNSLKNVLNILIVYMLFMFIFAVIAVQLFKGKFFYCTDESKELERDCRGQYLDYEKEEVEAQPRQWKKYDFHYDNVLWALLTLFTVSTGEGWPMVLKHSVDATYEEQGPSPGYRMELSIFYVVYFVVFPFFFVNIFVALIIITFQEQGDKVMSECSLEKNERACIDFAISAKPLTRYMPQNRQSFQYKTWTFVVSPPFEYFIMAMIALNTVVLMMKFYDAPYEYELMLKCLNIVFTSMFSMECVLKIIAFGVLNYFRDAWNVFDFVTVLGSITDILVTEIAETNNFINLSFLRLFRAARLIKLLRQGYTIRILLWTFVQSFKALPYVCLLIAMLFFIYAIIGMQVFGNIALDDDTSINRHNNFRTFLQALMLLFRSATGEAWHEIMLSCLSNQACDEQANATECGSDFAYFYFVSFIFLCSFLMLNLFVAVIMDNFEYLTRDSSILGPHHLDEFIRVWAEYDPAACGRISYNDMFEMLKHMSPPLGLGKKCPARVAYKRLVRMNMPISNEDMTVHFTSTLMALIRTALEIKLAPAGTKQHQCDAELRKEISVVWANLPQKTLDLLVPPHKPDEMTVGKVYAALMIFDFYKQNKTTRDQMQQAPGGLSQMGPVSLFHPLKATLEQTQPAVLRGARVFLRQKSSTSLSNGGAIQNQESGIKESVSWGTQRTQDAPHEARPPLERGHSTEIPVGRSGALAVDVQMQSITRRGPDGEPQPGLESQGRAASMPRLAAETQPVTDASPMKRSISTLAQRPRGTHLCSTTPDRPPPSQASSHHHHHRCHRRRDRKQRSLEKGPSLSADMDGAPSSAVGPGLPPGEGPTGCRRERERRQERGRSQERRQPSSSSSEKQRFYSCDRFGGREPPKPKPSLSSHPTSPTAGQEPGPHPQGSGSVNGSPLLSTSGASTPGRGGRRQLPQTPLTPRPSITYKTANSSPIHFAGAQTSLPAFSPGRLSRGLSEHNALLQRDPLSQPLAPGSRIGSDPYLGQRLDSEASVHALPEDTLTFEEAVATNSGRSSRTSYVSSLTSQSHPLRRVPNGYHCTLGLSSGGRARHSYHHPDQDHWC

[3] = molecular target: T2, Voltage-dependent N-type calcium channel subunit alpha-1B; assay: Inhibition of Cav2.2 channel (unknown origin) assessed as reduction in peak currents at 10 uM by whole cell patch-clamp method
Target sequence in this assay (Q00975 whole entry, looked up): as the sequence (Q00975 whole entry) above

[4] = molecular target: T1, Voltage-dependent T-type calcium channel subunit alpha-1G; assay: Inhibition of Cav3.1 channel (unknown origin) assessed as reduction in peak currents by whole cell patch-clamp method
[5] = system: Rattus norvegicus; assay: Analgesic activity in Sprague-Dawley rat model of spinal cord injury-induced neuropathic pain assessed as reduction in thermal hyperalgesia by measuring paw withdrawal latency time at 100 ug dosed intrathecally measured after 30 mins (reference value: […]); assay type: functional
[6] = system: Rattus norvegicus; assay: Analgesic activity in Sprague-Dawley rat model of spinal cord injury-induced neuropathic pain assessed as reduction in mechanical allodynia by measuring paw withdrawal threshold at 10 ug dosed intrathecally measured after 30 mins (reference value: 2.8 +/- 0.4 g); assay type: functional
[7] = system: Rattus norvegicus; assay: Analgesic activity in Sprague-Dawley rat model of spinal cord injury-induced neuropathic pain assessed as reduction in thermal hyperalgesia by measuring paw withdrawal latency time at 50 ug dosed intrathecally measured after 30 mins (reference value: […]); assay type: functional
[8] = system: Rattus norvegicus; assay: Analgesic activity in Sprague-Dawley rat model of spinal cord injury-induced neuropathic pain assessed as reduction in mechanical allodynia by measuring paw withdrawal threshold at 50 ug dosed intrathecally measured after 30 mins (reference value: 2.8 +/- 0.4 g); assay type: functional
[9] = system: Rattus norvegicus; assay: Analgesic activity in Sprague-Dawley rat model of spinal cord injury-induced neuropathic pain assessed as reduction in mechanical allodynia by measuring paw withdrawal threshold at 100 ug dosed intrathecally measured after 30 mins (reference value: 2.8 +/- 0.4 g); assay type: functional
[10] = system: Rattus norvegicus; assay: Analgesic activity in Sprague-Dawley rat model of spinal cord injury-induced neuropathic pain assessed as reduction in thermal hyperalgesia by measuring paw withdrawal latency time at 10 ug dosed intrathecally measured after 30 mins (reference value: […]); assay type: functional
[11] = system: Rattus norvegicus; assay: Effect on hind limb locomotion in Sprague-Dawley rat model of spinal cord injury-induced neuropathic pain assessed as Basso-Beattie-Bresnahan scores at 10 to 100 ug dosed via intrathecal route; assay type: ADME, organism-based, Hindlimb; conditions: in vivo, icv_or_intrathecal

T1 sequence (O43497 whole entry): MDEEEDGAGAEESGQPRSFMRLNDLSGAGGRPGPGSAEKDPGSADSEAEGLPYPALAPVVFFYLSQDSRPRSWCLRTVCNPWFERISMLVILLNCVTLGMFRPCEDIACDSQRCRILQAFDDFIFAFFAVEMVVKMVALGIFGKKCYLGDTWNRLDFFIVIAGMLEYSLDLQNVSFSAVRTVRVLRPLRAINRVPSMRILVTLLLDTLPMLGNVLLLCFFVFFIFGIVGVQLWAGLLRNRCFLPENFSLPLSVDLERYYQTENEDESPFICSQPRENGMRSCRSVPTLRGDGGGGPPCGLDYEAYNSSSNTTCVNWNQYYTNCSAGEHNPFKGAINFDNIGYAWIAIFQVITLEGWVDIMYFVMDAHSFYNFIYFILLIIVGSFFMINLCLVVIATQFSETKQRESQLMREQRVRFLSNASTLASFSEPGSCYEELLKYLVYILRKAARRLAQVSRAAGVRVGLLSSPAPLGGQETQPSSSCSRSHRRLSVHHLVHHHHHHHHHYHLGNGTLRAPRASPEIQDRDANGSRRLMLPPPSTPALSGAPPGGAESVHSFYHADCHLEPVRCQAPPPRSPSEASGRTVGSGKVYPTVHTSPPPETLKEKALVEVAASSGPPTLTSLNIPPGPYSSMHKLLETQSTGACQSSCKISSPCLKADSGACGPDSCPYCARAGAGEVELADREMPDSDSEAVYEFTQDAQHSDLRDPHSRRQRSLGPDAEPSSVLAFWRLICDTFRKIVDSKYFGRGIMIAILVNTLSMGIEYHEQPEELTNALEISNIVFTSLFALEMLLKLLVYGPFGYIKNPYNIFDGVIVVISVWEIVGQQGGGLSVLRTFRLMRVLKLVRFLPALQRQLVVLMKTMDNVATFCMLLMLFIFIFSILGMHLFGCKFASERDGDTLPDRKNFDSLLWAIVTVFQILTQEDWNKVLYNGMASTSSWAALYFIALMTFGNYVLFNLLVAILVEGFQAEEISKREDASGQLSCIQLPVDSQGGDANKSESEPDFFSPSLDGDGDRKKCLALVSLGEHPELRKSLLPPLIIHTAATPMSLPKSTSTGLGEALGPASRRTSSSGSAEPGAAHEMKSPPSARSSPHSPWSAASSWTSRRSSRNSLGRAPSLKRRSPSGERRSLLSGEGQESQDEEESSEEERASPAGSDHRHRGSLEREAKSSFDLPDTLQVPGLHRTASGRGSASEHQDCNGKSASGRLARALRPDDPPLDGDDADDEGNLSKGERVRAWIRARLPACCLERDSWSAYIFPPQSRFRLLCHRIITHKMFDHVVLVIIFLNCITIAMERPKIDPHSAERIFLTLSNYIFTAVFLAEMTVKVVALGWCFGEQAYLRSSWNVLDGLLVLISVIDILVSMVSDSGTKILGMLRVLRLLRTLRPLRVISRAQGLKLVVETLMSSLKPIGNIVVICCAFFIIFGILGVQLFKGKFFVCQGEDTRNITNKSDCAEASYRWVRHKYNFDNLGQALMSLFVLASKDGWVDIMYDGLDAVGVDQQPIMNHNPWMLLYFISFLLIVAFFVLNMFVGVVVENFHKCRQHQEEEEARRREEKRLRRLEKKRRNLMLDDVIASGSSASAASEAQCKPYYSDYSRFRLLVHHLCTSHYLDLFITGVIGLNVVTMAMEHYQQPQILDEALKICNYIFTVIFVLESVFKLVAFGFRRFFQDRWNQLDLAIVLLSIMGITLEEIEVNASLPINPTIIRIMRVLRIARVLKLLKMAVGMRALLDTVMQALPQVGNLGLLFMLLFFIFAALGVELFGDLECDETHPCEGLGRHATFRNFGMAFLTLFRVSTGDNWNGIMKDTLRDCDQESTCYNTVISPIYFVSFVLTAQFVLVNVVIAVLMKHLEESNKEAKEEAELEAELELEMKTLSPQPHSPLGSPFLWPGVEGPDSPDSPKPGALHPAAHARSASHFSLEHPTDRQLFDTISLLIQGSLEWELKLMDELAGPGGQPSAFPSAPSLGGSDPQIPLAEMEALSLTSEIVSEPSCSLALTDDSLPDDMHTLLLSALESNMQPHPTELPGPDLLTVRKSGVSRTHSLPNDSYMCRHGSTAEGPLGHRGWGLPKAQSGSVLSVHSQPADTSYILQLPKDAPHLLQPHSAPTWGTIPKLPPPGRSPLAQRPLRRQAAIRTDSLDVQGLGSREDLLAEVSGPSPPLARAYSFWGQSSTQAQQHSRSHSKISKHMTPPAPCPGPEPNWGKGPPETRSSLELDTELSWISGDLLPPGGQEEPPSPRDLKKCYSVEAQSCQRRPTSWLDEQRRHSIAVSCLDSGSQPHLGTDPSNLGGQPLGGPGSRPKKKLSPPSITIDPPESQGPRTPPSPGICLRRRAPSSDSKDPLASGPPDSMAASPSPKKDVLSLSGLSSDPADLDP

inhibition [1] [%] | pIC50 [2] | inhibition [3] [%] | pIC50 [4] | Compound | other results
14.5 |  |  |  | NC(=O)c1cccc(NCc2ccc(-c3ccc(Cl)cc3)o2)c1 | 
25.2 |  |  |  | NC(=O)c1cccc(NCc2cc(-c3ccc(Cl)cc3)on2)c1 | 
41.6 |  |  |  | COc1ccc(-c2ccc(CNc3cccc(C(N)=O)c3)o2)cc1Cl | 
39.3 |  |  |  | NC(=O)c1cccc(NCc2ccc(-c3cccc(C(F)(F)F)c3)o2)c1 | 
53 |  | 21.6 | 5.13 | N#Cc1ccc(Oc2ccc(-c3ccc(CNc4cccc(C(N)=O)c4)o3)cc2)cc1 | Activity [5]: inactive; Activity [6]: inactive; Activity [7]: inactive; Activity [8]: inactive; Activity [9]: inactive; Activity [10]: inactive

Second part, the compound before the results:

Compound | inhibition [1] [%] | pIC50 [2] | inhibition [3] [%] | pIC50 [4] | other results
COc1cc(CNCc2c[nH]c3ccc(Cl)cc23)cc(OC)c1OC | 64.2 | 5.02 | 75.2 | 5.28 | 
COc1cc(CNCc2ccc(N3CCOCC3)cc2)cc(OC)c1OC | 9.8 |  |  |  | 
COc1cc(CNCc2ccc(-c3cncnc3)cc2)cc(OC)c1OC | 38.3 |  |  |  | 
COc1cc(CNCc2ccc(Oc3ccc(C#N)cc3)cc2)cc(OC)c1OC | 60.4 | 5.03 | 54.9 | 5.19 | 
COc1ccc(-c2ccc(CNCc3cc(OC)c(OC)c(OC)c3)o2)cc1Cl | 77.6 | 5.23 | 70.6 | 5.62 | 
COc1cc(CNCc2ccc(-c3ccc(Cl)cc3)o2)cc(OC)c1OC | 91.3 | 5.37 | 80.2 | 5.72 | Time [5]: 8.9 s; Activity [6]: 2.6 g; Time [7]: 8.3 s; Activity [8]: 9.16 g; Activity [9]: 11.1 g; Time [10]: 5.8 s; Activity [11]: Non-toxic
COc1cc(CNCc2ccc(-c3cccc(C(F)(F)F)c3)o2)cc(OC)c1OC | 86.6 | 5.17 | 81.6 | 5.60 | 
NC(=O)c1cccc(NCc2ccc(N3CCOCC3)cc2)c1 | 4.1 |  |  |  | 
COc1cc(CNCc2ccc(-c3ccncc3)cc2)cc(OC)c1OC | 21.9 |  |  |  | 
NC(=O)c1cccc(NCc2c[nH]c3ccc(Cl)cc23)c1 | 39.9 |  |  |  | 
